Like-named read-outs stand apart in the source and are kept apart here.
How the values were obtained:
[1] = wetted with water or ethanol, ground, dried 10 min; XRPD
Protocol: Wet samples were ground gently with a mortar and pestle. Post granulation samples were dried under ambient condition for 10 min. Potential change of polymorph form and degree of crystallinity were evaluated by XRPD.

[2] = Dynamic vapor sorption (DVS) test at 25° C.; type: physicochemical; settings: for Desorp. (%) / Sorp. (%): cycle 40-0-95-0-40% RH
[3] = ground manually with mortar and pestle for 5 min; XRPD
Protocol: Potential change of polymorph form and degree of crystallinity were evaluated by XRPD.

[4] = Thermogravimetric analysis (TGA) weight loss; type: physicochemical; settings: large scale batch, at the temperature printed in the same cell (100-170° C.)
Crystallinity by XRPD = type: physicochemical; settings: large scale batch
Protocol: (§1) Obtained suspensions were taken out and centrifuged. Solids obtained was analysed by XRPD. Salts with high or medium crystallinity were further characterized (see Table 5).
(§2) According to the salt screening results (see Table 4), totally 19 potential salt hits were identified. All the potential salt hits were further investigated by Differential Scanning Calorimetry (DSC), Thermogravimetric analysis (TGA), H-NMR, Ion chromatography (IC), Karl Fischer titration (KF), and Polarized Light Microscopy (PLM) to confirm their identity and evaluate their physicochemical properties as shown in Table 5 below.

[5] = Salt screening (slurry crystallization); type: physicochemical; design: key to Salt screening result: (+) shows that a crystalline salt was formed; (−) physical mixtures; settings: for Polymorph obtained in salt screening: XRPD; for Salt screening result: slurry 50° C. then 25° C.
Protocol: About 45 mg was added to a suitable solvent and different equivalents of acids were added under stirring at 50° C. for about 2 hours and then at 25° C. for at least 32 hours. Ethanol, acetone, and ACN were used as screening solvents. When no precipitation was obtained or only a few solids were obtained, the solutions were placed at 5° C. for crystallization.
as §1

[6] = Hygroscopicity (water uptake) of salt hits; type: physicochemical; settings: salt screening sample
Excerpt: as §2

[7] = Thermogravimetric analysis (TGA) weight loss; type: physicochemical; settings: salt screening sample, at the temperature given (80-200° C.)
Excerpt: as §2

[8] = listed as succinate salt Polymorph A

Structure (SMILES): COc1cc(C(F)(F)F)c(OC)cc1[C@@H]1CCCNC1.O=C(O)CCC(=O)O [Succinate salt Polymorph A (anhydrate), succinic acid salt of (S)-3-(2,5-dimethoxy-4-(trifluoromethyl)phenyl)piperidine]
- Change of polymorph form and degree of crystallinity [1]: No change in polymorph form and crystallinity was observed
- Desorp. (%) ([2]; 0% RH, 25° C.): 0.00%
- Sorp. (%) ([2]; 0% RH, 25° C.): 0.06%
- Desorp. (%) ([2]; 10% RH, 25° C.): 0.01%
- Sorp. (%) ([2]; 10% RH, 25° C.): 0.06%
- Desorp. (%) ([2]; 20% RH, 25° C.): 0.01%
- Sorp. (%) ([2]; 20% RH, 25° C.): 0.07%
- Water absorbed from 40% RH to 95% RH ([2]; 25° C.): about 0.21%
- Desorp. (%) ([2]; 30% RH, 25° C.): 0.02%
- Sorp. (%) ([2]; 30% RH, 25° C.): 0.07%
- Desorp. (%) ([2]; 40% RH, 25° C.): 0.02%
- Sorp. (%) ([2]; 40% RH, 25° C.): 0.07%
- Desorp. (%) ([2]; 50% RH, 25° C.): 0.02%
- Sorp. (%) ([2]; 50% RH, 25° C.): 0.09%
- Desorp. (%) ([2]; 60% RH, 25° C.): 0.03%
- Sorp. (%) ([2]; 60% RH, 25° C.): 0.08%
- Desorp. (%) ([2]; 70% RH, 25° C.): 0.10%
- Sorp. (%) ([2]; 70% RH, 25° C.): 0.09%
- Desorp. (%) ([2]; 80% RH, 25° C.): 0.11%
- Sorp. (%) ([2]; 80% RH, 25° C.): 0.10%
- Desorp. (%) ([2]; 90% RH, 25° C.): 0.16%
- Sorp. (%) ([2]; 90% RH, 25° C.): 0.14%
- Desorp. (%) ([2]; 95% RH, 25° C.): 0.29%
- Sorp. (%) ([2]; 95% RH, 25° C.): 0.29%
- XRPD after DVS test ([2]; DVS at 25° C.): No form changes
- Hygroscopicity ([2]; DVS at 25° C., grade in words): non-hygroscopic
- Change of polymorph form and degree of crystallinity [3]: No change in polymorph form and crystallinity was observed
- Weight loss (%) at Temperature (° C.) [4]: 0.2 at %
- Weight loss (%) at Temperature (° C.) [4, 8]: about 0.2%
- Crystallinity (Crystallinity by XRPD): High
- Crystallinity (Crystallinity by XRPD; [8]): high crystallinity
- Polymorph obtained in salt screening ([5]; ACN): Polymorph A
- Salt screening result ([5]; ACN): +
- Polymorph obtained in salt screening ([5]; Acetone): Polymorph A
- Salt screening result ([5]; Acetone): +
- Polymorph obtained in salt screening ([5]; EtOH): Polymorph A
- Salt screening result ([5]; EtOH): +
- Hygroscopicity (water uptake % w/w) [6]: (~0.7%) % w/w
- Weight loss (%) [7]: 2.1%

Source: patent US12723024B2 (priority 2021, dated 2026)
